Measurements as given in patent US12534474B2, “Dihydrofuropyridine derivatives as rho-kinase inhibitors” (CHIESI FARMACEUTICI S.P.A., priority 2020, dated 2026).
pKi: −log10 of the molar value.

Columns and labels:
Type in all cases: biochemical
ROCK2 [1] = target: T1, ROCK2 (Homo sapiens, UniProt O75116); test: In vitro Rho kinase inhibitory activity assay, ADP-Glo, Method A (ATP 10 μM); details: read-out: Method A ROCK 2 (Ki)
Experimental: (§1) In Vitro Inhibitory Activity Assay Description (Method A)
(§2) The effectiveness of compounds of the present invention to inhibit Rho kinase activity can be determined in a 10 μL assay containing 40 mM Tris pH7.5, 20 mM MgCl2 0.1 mg/mL BSA, 50 μM DTT and 2.5 μM peptide substrate (Myelin Basic Protein) using an ADP-Glo kit (Promega). Compounds were dissolved in DMSO such that the final concentration of DMSO was 1% in the assay. All reactions/incubations are performed at 25° C. Compound (2 μL) and either Rho kinase 1 or 2 (4 μL) were mixed and incubated for 30 min. Reactions were initiated by addition of ATP (4 μL) such that the final concentration of ATP in the assay was 10 μM. After a 1 hour incubation 10 μL of ADP-Glo Reagent was added and after a further 45 minute incubation 20 μL of Kinase Detection Buffer was added and the mixture incubated for a further 30 minutes. The luminescent signal was measured on a luminometer. […] Compounds were tested in dose-response format and the inhibition of kinase activity was calculated at each concentration of compound. To determine the IC50 (concentration of compound required to inhibit 50% of the enzyme activity) data were fit to a plot of % inhibition vs Log10 compound concentration using a sigmoidal fit with a variable slope and fixing the maximum to 100% and the minimum to 0%. To determine the Ki values the Cheng-Prusoff equation was utilized (Ki=IC50/(1+[S]/Km).

ROCK1 [2] = target: T2, ROCK1 (Homo sapiens, UniProt Q13464); test: as above; details: read-out: Method A ROCK 1 (Ki)
T2 sequence (Q13464 whole entry): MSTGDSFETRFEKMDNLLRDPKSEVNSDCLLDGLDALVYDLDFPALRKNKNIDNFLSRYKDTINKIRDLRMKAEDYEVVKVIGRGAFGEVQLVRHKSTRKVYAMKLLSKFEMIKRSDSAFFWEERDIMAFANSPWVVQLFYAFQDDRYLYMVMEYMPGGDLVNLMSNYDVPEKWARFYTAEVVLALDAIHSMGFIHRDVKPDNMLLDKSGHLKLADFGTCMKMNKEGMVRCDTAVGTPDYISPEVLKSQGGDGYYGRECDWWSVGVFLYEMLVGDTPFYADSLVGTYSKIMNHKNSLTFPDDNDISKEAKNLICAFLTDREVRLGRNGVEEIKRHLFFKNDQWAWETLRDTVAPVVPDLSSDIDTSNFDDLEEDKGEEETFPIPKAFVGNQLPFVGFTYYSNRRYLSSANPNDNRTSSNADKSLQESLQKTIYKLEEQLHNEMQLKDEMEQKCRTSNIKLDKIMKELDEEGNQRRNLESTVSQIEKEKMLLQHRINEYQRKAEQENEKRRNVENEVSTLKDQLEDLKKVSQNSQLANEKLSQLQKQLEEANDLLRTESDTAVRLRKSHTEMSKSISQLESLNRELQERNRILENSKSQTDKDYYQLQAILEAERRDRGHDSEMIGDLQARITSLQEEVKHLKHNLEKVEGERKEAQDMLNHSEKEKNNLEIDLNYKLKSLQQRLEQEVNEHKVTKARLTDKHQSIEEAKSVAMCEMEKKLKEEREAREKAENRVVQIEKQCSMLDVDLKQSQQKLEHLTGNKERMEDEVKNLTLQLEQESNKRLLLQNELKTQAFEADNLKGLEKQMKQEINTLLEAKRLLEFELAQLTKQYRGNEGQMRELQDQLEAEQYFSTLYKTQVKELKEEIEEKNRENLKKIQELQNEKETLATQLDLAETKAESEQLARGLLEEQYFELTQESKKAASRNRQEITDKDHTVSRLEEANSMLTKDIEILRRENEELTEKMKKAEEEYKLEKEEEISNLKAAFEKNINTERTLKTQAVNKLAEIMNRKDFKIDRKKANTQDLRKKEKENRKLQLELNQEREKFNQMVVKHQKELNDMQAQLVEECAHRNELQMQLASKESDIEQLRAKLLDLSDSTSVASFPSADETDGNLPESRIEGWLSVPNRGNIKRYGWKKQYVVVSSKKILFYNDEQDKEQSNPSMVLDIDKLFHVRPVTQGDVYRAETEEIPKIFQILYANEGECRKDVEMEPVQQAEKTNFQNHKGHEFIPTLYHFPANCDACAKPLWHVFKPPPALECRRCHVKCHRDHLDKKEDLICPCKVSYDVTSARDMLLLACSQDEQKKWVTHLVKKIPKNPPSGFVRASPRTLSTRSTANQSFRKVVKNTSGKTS
Experimental: as §1, §2

PKA = PKA (Homo sapiens, UniProt P17612); test: In vitro inhibitory activity assay for PKA, ADP-Glo, reported as selectivity ratio vs ROCK2; details: Ki for PKA divided by Ki of ROCK2 (Method B)
Method in brief: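 PKA preincubated 30 min with compound (1% DMSO), then reacted 30 min at 25 °C with 10 μM ATP and 260 μM kemptide in Tris pH7.5/MgCl2/BSA/DTT; ADP-Glo luminescence. IC50 from constrained sigmoidal fit, converted to Ki by Cheng-Prusoff; value given as Ki(PKA)/Ki(ROCK2, Method B).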

ROCK2 [3] = target: T1, ROCK2; test: In vitro Rho kinase inhibitory activity assay, ADP-Glo, Method B (ATP 200 μM); details: read-out: Method B ROCK 2 (Ki)
Method in brief: (§3)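 Enzyme preincubated 30 min with compound in 40 mM Tris pH 7.5, 20 mM MgCl2, 0.1 mg/mL BSA, 50 μM DTT, 2.5 μM myelin basic protein, 1% DMSO, 25 °C; 1 h reaction at 200 μM ATP. ADP-Glo luminescence; IC50 from variable-slope sigmoidal fit (0–100% fixed), Ki via Cheng-Prusoff.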

ROCK1 [4] = target: T2, ROCK1; test: as above; details: read-out: Method B ROCK 1 (Ki)
Method in brief: as §3

T1 sequence (O75116 whole entry): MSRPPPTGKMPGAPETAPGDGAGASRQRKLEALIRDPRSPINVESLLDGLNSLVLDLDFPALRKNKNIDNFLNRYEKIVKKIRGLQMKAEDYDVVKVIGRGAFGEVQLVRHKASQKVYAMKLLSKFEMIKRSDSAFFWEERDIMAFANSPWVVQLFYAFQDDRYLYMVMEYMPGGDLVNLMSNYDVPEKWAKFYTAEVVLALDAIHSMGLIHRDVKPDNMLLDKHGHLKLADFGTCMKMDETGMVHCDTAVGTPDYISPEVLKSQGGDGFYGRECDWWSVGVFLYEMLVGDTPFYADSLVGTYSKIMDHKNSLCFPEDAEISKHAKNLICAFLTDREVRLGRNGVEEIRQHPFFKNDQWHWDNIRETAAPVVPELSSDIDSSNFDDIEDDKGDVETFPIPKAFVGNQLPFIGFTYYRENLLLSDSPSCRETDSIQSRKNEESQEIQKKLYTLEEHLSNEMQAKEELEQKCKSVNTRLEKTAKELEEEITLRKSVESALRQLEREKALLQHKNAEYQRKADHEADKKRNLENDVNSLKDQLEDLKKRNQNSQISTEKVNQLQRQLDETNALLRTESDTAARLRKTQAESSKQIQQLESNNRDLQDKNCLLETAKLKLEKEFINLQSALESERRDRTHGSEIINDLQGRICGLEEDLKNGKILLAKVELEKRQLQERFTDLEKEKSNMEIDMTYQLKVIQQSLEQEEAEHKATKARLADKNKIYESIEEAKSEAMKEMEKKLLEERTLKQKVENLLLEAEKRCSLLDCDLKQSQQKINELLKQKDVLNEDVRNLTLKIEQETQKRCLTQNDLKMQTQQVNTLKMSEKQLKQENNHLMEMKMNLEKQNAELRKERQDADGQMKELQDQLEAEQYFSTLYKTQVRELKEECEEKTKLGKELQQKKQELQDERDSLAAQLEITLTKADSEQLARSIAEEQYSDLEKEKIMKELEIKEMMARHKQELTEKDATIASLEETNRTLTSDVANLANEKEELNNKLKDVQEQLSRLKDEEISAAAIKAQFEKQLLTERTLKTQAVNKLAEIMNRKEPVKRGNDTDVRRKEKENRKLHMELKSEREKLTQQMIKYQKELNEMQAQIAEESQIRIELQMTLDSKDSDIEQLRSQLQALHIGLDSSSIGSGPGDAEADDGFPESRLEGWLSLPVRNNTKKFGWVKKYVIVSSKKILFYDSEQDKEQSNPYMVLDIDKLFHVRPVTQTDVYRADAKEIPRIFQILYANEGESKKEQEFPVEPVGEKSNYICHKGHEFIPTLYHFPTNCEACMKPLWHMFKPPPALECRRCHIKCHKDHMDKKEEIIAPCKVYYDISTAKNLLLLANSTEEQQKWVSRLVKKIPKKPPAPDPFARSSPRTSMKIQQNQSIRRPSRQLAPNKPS

For `c1ccc(CNc2ncc(-c3ccncc3)c3c2CCO3)cc1` [Example A, N-Benzyl-7-(pyridin-4-yl)-2,3-dihydrofuro[3,2-c]pyridin-4-amine, reference compound], the pKi (ROCK2 [1]) was < 7.52, the pKi (ROCK1 [2]) was < 7.52 and the “Ratio (PKA/ROCK2)” value (PKA) was “* (ratio<5)”. The pKi (ROCK2 [3]) was < 7.52 and the pKi (ROCK1 [4]) was < 7.52.
